According to PMC4847174, “C1, a highly potent novel curcumin derivative, binds to tubulin, disrupts microtubule network and induces apoptosis” (Bioscience Reports, 2016):

Experiments:
tubulin [1] = target: T1, tubulin; experiment: quenching of intrinsic tryptophan fluorescence; gel filtration co-elution; curcumin displacement; polymerization inhibition; type: binding, Capra hircus
T1 construct: tubulin purified from goat brain

tubulin [2] = target: T1, tubulin; experiment: quenching of intrinsic tryptophan fluorescence; type: binding, Capra hircus

Kd (tubulin [1]) | Kd (tubulin [2]) | SMILES
2.8 ± 1 µM | – | COc1cc(/C=C/C(=O)C(=CC2CCN(C(=O)OC(C)(C)C)CC2)C(=O)/C=C/c2ccc(O)c(OC)c2)ccc1O [C1, 4-{5-(4-hydroxy-3-methoxy-phenyl)-2-[3-(4-hydroxy-3-methoxy-phenyl)-acryloyl]-3-oxo-penta-1,4-dienyl}-piperidine-1-carboxylic acid tert-butyl ester]
– | 5.2 ± 0.8 µM | COc1cc(/C=C/C(=O)CC(=O)/C=C/c2ccc(O)c(OC)c2)ccc1O [Curcumin]
